Data published in US20230014907A1, “INHIBITORS OF APOL1 AND METHODS OF USING SAME” (Vertex Pharmaceuticals Incorporated, priority 2020, published 2023).
Where a name gives a salt, the structure may show the parent alone.

Experiments:
G1 APOL1 = molecular target: T1, G1 APOL1 (Homo sapiens, UniProt O14791, I384M/S342G); test: Acute APOL1 Thallium Assay with Inducible Stable Clones of HEK 293 Cells; format: cell-based; conditions: HEK 293 inducible stable clones, G1 APOL1; read-out: Thallium Assay (IC50)
T1 construct: expressed in transfected cells
T1 sequence (O14791 28-398 S342G/I384M): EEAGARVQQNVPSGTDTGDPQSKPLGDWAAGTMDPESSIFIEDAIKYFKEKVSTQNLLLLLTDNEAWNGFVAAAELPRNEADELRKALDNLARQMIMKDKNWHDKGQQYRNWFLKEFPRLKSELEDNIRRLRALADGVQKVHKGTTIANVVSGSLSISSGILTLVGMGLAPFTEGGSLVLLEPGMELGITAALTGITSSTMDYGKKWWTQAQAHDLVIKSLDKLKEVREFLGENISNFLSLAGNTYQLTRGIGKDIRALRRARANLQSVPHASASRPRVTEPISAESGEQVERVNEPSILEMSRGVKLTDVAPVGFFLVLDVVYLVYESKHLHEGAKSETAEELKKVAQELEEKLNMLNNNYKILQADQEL
How it was run: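 Pore activity was read as the fluorescence increase from Tl+ entering cells loaded with an AM-ester thallium indicator dye. The cells were tetracycline-inducible HEK293 T-Rex expressing G1 APOL1 (clone DC3.25), induced when plated at 26000 per well and incubated at 37° C.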

APOL1 G1 Protein = molecular target: T2, APOL1 G1 Protein (Homo sapiens, UniProt O14791, I384M/S342G); test: Trypanosoma brucei brucei Lysis Assay Using APOL1 Recombinant Protein (AlamarBlue viability); format: cell-based; conditions: read-out: Trypanosomal Assay (IC50)
T2 sequence (O14791 28-398 S342G/I384M): T1 sequence (O14791 28-398 S342G/I384M)
How it was run: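 Lister 427 bloodstream-form trypanosomes seeded at 120,000 per well in phenol-red-free, serum-free medium and lysed with recombinant APOL1 variant protein. Viability read by AlamarBlue (resazurin) fluorescence. Percent viability relative to untreated wells, interpolated from a standard curve of seeded parasites.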

Row | Structure (SMILES) | IC50 (G1 APOL1) [nM] | IC50 (APOL1 G1 Protein) [nM]
1 | O=C(CCc1c(-c2ccc(F)cc2)[nH]c2ccc(F)cc12)N[C@H]1CNC[C@@H]1O [Compound 2, 3-[5-fluoro-2-(4-fluorophenyl)-1H-indol-3-yl]-N-[(3S,4S)-4-hydroxypyrrolidin-3-yl]propanamide hydrochloride] | > 1000 | > 1000
2 | CC[C@H](CO)NC(=O)CCc1c(-c2ccc(F)cc2)[nH]c2ccc(F)cc12 [Compound 89] | 250 to 1000 | < 250
3 | C[C@@H](CO)NC(=O)CCc1c(-c2ccc(F)cc2)[nH]c2c(F)cc(F)cc12 [Compound 109] | 250 to 1000 | 250 to 1000
4 | NC(=O)[C@@H](CO)NC(=O)CCc1c(-c2ccc(F)cc2)[nH]c2c(F)cc(F)cc12 [Compound 98] | 250 to 1000 | > 1000
5 | NC(=O)C(CO)NC(=O)CCc1c(-c2ccc(F)cc2)[nH]c2ccc(F)cc12 (stereo not drawn) [Compound 36] | > 1000 | > 1000
6 | CC(CO)(CO)NC(=O)CCc1c(-c2ccc(F)cc2)[nH]c2ccc(F)cc12 [Compound 18] | 250 to 1000 | 250 to 1000
7 | CN(CCN)C(=O)CCc1c(-c2ccc(F)cc2)[nH]c2ccc(F)cc12 [Compound 37] | > 1000 | > 1000
8 | NC(=O)CCc1c(-c2ccc(F)cc2)[nH]c2ccc(F)cc12 [Compound 68] | > 1000 | > 1000
9 | O=C(CCc1c(-c2ccc(F)cc2)[nH]c2c(F)cc(F)cc12)NC[C@H](O)C(F)(F)F [Compound 114] | > 1000 | > 1000
10 | CN(CC(F)(F)F)C(=O)CCc1c(-c2ccc(F)cc2)[nH]c2c(F)cc(F)cc12 [Compound 166] | > 1000 | > 1000
11 | CC(O)C(=O)NCCCc1c(-c2ccc(F)cc2)[nH]c2ccc(F)cc12 (racemic) [Compound 507] | < 250 | 250 to 1000
12 | Cn1ccc(NC(=O)CCc2c(-c3ccc(F)cc3)[nH]c3c(F)cc(F)cc23)n1 [Compound 163] | > 1000 | > 1000
13 | CC(=O)NCCSc1c(-c2ccc(F)cc2)[nH]c2ccccc12 [Compound 510, N-[2-[[2-(4-fluorophenyl)-1H-indol-3-yl]sulfanyl]ethyl]acetamide] | 250 to 1000 | 250 to 1000
14 | O=C(CCc1c(-c2ccc(F)cc2)[nH]c2c(F)cc(F)cc12)Nc1nccs1 [Compound 167] | > 1000 | > 1000
15 | NC1CCN(C(=O)CCc2c(-c3ccc(F)cc3)[nH]c3ccc(F)cc23)C1 (stereo not drawn) [Compound 49] | > 1000 | > 1000
16 | Cc1cc(NC(=O)CCc2c(-c3ccc(F)cc3)[nH]c3ccc(F)cc23)no1 [Compound 526] | > 1000 | > 1000
17 | O=C(CCc1c(-c2ccc(F)cc2)[nH]c2ccc(F)cc12)N1CCC(F)C1 (stereo not drawn) [Compound 55] | > 1000 | > 1000
18 | C[C@H](CO)NC(=O)CCc1c(-c2ccc(F)cc2)[nH]c2ccc(F)cc12 [Compound 8] | < 250 | < 250
19 | CC(=O)OCC(CO)NC(=O)CCc1c(-c2ccc(F)cc2)[nH]c2c(F)cc(F)cc12 (stereo not drawn) [Compound 141] | 250 to 1000 | 250 to 1000
20 | O=C(CCc1c(-c2ccc(F)cc2)[nH]c2c(F)cc(F)cc12)Nc1c[nH][nH]c1=O [Compound 97] | 250 to 1000 | > 1000
21 | O=C(CCc1c(-c2ccc(F)cc2)[nH]c2c(F)cc(F)cc12)Nc1cccc(=O)[nH]1 [Compound 170] | > 1000 | > 1000
22 | O=C(CCc1c(-c2ccc(F)cc2)[nH]c2c(F)cc(F)cc12)NC(CO)c1ccccn1 (stereo not drawn) [Compound 185] | > 1000 | > 1000
23 | O=C(CCc1c(-c2ccc(F)cc2)[nH]c2c(F)cc(F)cc12)Nc1nnc(C(F)(F)F)o1 [Compound 148] | > 1000 | > 1000
24 | O=C(CCc1c(-c2ccc(F)cc2)[nH]c2ccc(F)cc12)NCC1COC1 [Compound 43] | > 1000 | > 1000
25 | O=C(CCc1c(-c2ccc(F)cc2)[nH]c2c(F)cc(F)cc12)N1CCC[C@@H]1CO [Compound 117] | > 1000 | 250 to 1000
26 | O=C(CCc1c(-c2ccc(F)cc2)[nH]c2ccc(F)cc12)N[C@H]1C[C@H](O)C1 [Compound 84] | > 1000 | > 1000
27 | CC1(NC(=O)CCc2c(-c3ccc(F)cc3)[nH]c3ccc(F)cc23)COC1 [Compound 16] | > 1000 | 250 to 1000

Row | Structure (SMILES) | IC50 (G1 APOL1) [nM] | IC50 (APOL1 G1 Protein) [nM]
28 | NC(=O)C1(NC(=O)CCc2c(-c3ccc(F)cc3)[nH]c3ccc(F)cc23)CC1 [Compound 20] | > 1000 | > 1000
29 | Cc1cnc(NC(=O)CCc2c(-c3ccc(F)cc3)[nH]c3c(F)cc(F)cc23)s1 [Compound 178] | > 1000 | > 1000
30 | O=C(CCc1c(-c2ccc(F)cc2)[nH]c2c(F)cc(F)cc12)NC[C@@H](O)C(F)(F)F [Compound 137] | > 1000 | > 1000
31 | N[C@H]1C[C@H](NC(=O)CCc2c(-c3ccc(F)cc3)[nH]c3ccc(F)cc23)C1 [Compound 54] | > 1000 | > 1000
32 | O=C(CCc1c(-c2ccc(F)cc2)[nH]c2ccccc12)NC1CC1 [Compound 238] | > 1000 | > 1000
33 | CC(C)(C)OC(=O)NC1CCC(NC(=O)CCc2c(-c3ccc(F)cc3)[nH]c3ccc(F)cc23)C1 (stereo not drawn) [Compound 60] | > 1000 | > 1000
34 | NC1CCCN(C(=O)CCc2c(-c3ccc(F)cc3)[nH]c3ccc(F)cc23)C1 (stereo not drawn) [Compound 56] | > 1000 | > 1000
35 | CCNC(=O)C(C)NC(=O)CCc1c(-c2ccc(F)cc2)[nH]c2ccc(F)cc12 (racemic) [Compound 12] | 250 to 1000 | 250 to 1000
36 | CC(=O)NCCCc1c(-c2ccc(F)cc2)[nH]c2c(F)cc(F)cc12 [Compound 505, N-[3-[5,7-difluoro-2-(4-fluorophenyl)-1H-indol-3-yl]propyl]acetamide] | < 250 | 250 to 1000
37 | CC(C)C[C@H](CO)NC(=O)CCc1c(-c2ccc(F)cc2)[nH]c2c(F)cc(F)cc12 [Compound 192] | > 1000 | > 1000
38 | O=C(CCc1c(-c2ccc(F)cc2)[nH]c2c(F)cc(F)cc12)NC1(CO)COC1 [Compound 126] | 250 to 1000 | 250 to 1000
39 | O=C(CCc1c(-c2ccc(F)cc2)[nH]c2ccc(F)cc12)N[C@H]1CC[C@H]1O [Compound 14] | 250 to 1000 | 250 to 1000
40 | CC1(NC(=O)CCc2c(-c3ccc(F)cc3)[nH]c3c(F)cc(F)cc23)CCOC1=O (racemic) [Compound 105] | > 1000 | 250 to 1000
41 | Cn1nccc1NC(=O)CCc1c(-c2ccc(F)cc2)[nH]c2c(F)cc(F)cc12 [Compound 144] | > 1000 | > 1000
42 | Cc1nc(NC(=O)CCc2c(-c3ccc(F)cc3)[nH]c3c(F)cc(F)cc23)no1 [Compound 92, 3-[5,7-difluoro-2-(4-fluorophenyl)-1H-indol-3-yl]-N-(5-methyl-1,2,4-oxadiazol-3-yl)propanamide] | > 1000 | > 1000
43 | O=C(CCc1c(-c2ccc(F)cc2)[nH]c2ccc(F)cc12)N[C@@H]1CCC[C@H]1O [Compound 48] | > 1000 | > 1000
44 | O=C(CCc1c(-c2ccc(F)cc2)[nH]c2ccc(F)cc12)NCC(F)F [Compound 24] | 250 to 1000 | > 1000
45 | O=C(CCc1c(-c2ccc(F)cc2)[nH]c2c(F)cc(Br)cc12)N[C@H](CO)C(F)(F)F [Compound 228] | > 1000 | > 1000
46 | CC(CN)NC(=O)CCc1c(-c2ccc(F)cc2)[nH]c2ccc(F)cc12 (racemic) [Compound 5] | > 1000 | > 1000
47 | CCC(C)(O)CNC(=O)CCc1c(-c2ccc(F)cc2)[nH]c2ccc(F)cc12 (stereo not drawn) [Compound 74] | > 1000 | > 1000
48 | CC1(O)CN(C(=O)CCc2c(-c3ccc(F)cc3)[nH]c3ccc(F)cc23)C1 [Compound 86] | > 1000 | > 1000
49 | CC1(NC(=O)OC(C)(C)C)CCN(C(=O)CCc2c(-c3ccc(F)cc3)[nH]c3ccc(F)cc23)C1 (stereo not drawn) [Compound 27] | > 1000 | > 1000
50 | C[C@@H](CO)N(C)C(=O)CCc1c(-c2ccc(F)cc2)[nH]c2c(F)cc(F)cc12 [Compound 149] | > 1000 | > 1000
51 | O=C(CCc1c(-c2ccc(F)cc2)[nH]c2ccc(F)cc12)N1CCCC1CO (stereo not drawn) [Compound 71] | > 1000 | > 1000
52 | O=C(NCCCc1c(-c2ccc(F)cc2)[nH]c2ccc(F)cc12)C(F)F [Compound 506] | 250 to 1000 | 250 to 1000
53 | CC[C@@H](CO)NC(=O)CCc1c(-c2ccc(F)cc2)[nH]c2ccc(F)cc12 [Compound 80] | > 1000 | > 1000
54 | O=C(CCc1c(-c2ccc(F)cc2)[nH]c2c(F)cc(F)cc12)NCc1cn(CC(F)(F)F)cn1 [Compound 168] | > 1000 | > 1000
